What was measured:
Format in all cases: cell-based, human
[1] = tested on: vascular endothelial cells differentiated from normal iPSCs; test: Morphology of vascular endothelial cells differentiated from normal iPSCs after LysoGb3 treatment; conditions: treated for 9 days; FIG. 17
Experimental: Particularly, the vascular endothelial cells differentiated from normal iPSCs were treated with LysoGb3 protein (MATREYA LLC, USA) for 9 days, and then the morphology of the cells was confirmed.

[2] = tested on: TSP1 protein in vascular endothelial cells differentiated from normal iPSCs; test: Immunostaining of TSP1 protein expression location after LysoGb3 treatment; conditions: FIG. 20
[3] = tested on: KDR, eNOS and TSP1 genes in vascular endothelial cells differentiated from normal iPSCs; test: RT-PCR of vasculopathy-related genes after LysoGb3 treatment
Experimental: Particularly, the vascular endothelial cells differentiated from normal iPSCs were treated with LysoGb3 protein for 1, 3 or 5 days, and RNA was extracted from the cells using easy-BLUE (Intron). Then, RT-PCR was performed in the conventional manner to confirm the RNA expression levels of KDR, eNOS and TSP1 (Thrombospondin 1) genes related to vasculopathy. As a result, as shown in FIGS. 18a to 18c, the RNA expression levels of KDR, eNOS and TSP1 genes were increased 1 day after the treatment of LysoGb3 protein.

[4] = tested on: TSP1, KDR, eNOS and phospho-AKT in vascular endothelial cells differentiated from normal iPSCs; test: Western blotting of vasculopathy-related proteins after LysoGb3 treatment; conditions: treated for 3, 6, or 9 days; Western blot, FIG. 19
Experimental: (§1) Particularly, the FB-iPSCs prepared in Example 1 were treated with Fabrazyme, a therapeutic agent for Fabry disease, and starvation media in various combinations. Pro-Prep solution (Intron Biotechnology, Korea) was added to each sample and reacted at 4° C., followed by centrifugation at 1300 rpm for 10 minutes to obtain a supernatant. The obtained supernatant was electrophoresed on acrylamide gel and transferred to a nitrocellulose membrane, followed by blocking with 4% skim milk. Then, anti-LC3 antibody (1:1000, Santacruz, USA) was treated thereto and reacted at 4° C. for 24 hours, followed by washing three times with TBS containing tween-20. The protein expression level was confirmed by the conventional Western blotting. The expression level of each protein was corrected using GAPDH as a control.
The changes in the expression levels of vasculopathy-related proteins by Gb3 protein were confirmed using Western blotting. Particularly, the vascular endothelial cells differentiated from normal iPSCs were treated with LysoGb3 protein for 3, 6, or 9 days, and Western blotting was performed in the same manner as described in Experimental Example <3-1>. At this time, anti-TSP1 antibody (1:1000, Santacruz, USA), anti-KDR antibody (1:1000, Cell Signaling Technologies, USA), anti-eNOS antibody (1:1000, Cell Signaling Technologies, USA), anti-AKT antibody (1:1000, Cell Signaling Technologies, USA), and anti-phospho-AKT antibody (1:1000, Cell Signaling Technologies, USA) were used as antibodies.

[5] = tested on: TSP1, KDR and eNOS proteins in vascular endothelial cells differentiated from FB-iPSCs; test: Western blotting of vasculopathy-related proteins in vascular endothelial cells differentiated from FB-iPSCs
Experimental: as §1
(§2) Particularly, the vascular endothelial cells prepared in Example 2 were treated with Fabrazyme, and Western blotting was performed in the same manner as described in Experimental Example <3-1>. At this time, anti-KDR antibody (1:1000, Cell Signaling Technologies, USA), anti-eNOS antibody (1:1000, Cell Signaling Technologies, USA) and anti-TSP1 antibody (1:1000, Santacruz, USA) were used as antibodies.
Particularly, using the control group treated with only Fabrazyme on the vascular endothelial cells prepared in Example 2 and the experimental group treated with Fabrazyme and SB431542, Western blotting was performed in the same manner as described in Experimental Example <3-1>. At this time, anti-TSP1 antibody (1:1000, Santacruz, USA), anti-KDR antibody (1:1000, Cell Signaling Technologies, USA) and anti-eNOS antibody (1:1000, Cell Signaling Technologies, USA) were used as antibodies.

[6] = tested on: vascular endothelial cells differentiated from FB-iPSCs; test: Morphology of vascular endothelial cells differentiated from FB-iPSCs after TGF-β inhibitor treatment; conditions: for therapeutic effect on vasculopathy in patients with Fabry disease: conclusion of Experimental Example 9, patient-derived vascular endothelial cells
Experimental: Particularly, the FB-iPSCs prepared in Example 1 were cultured in a feeder-free state for 3 days. Thereafter, the medium was exchanged with RPMI-1640 medium containing 1% B27, to which 50 ng/ml of activin A and 20 ng/ml of BPM4 were added as growth factors, and then the cells were cultured for 2 days to differentiate into mesoderm cells. The medium was exchanged with RPMI-1640 medium containing 0.5% B27, to which 50 ng/ml of VEGFA and 50 ng/ml of bFGF were added as growth factors, and then the cells were cultured for 2 days to differentiate into vascular progenitors. CD34 positive cells capable of differentiating into vascular endothelial cells were isolated from the induced vascular progenitors by performing magnetic activated cell sorting (MACS) using CD34 magnetic beads. The isolated CD34 positive cells were further cultured for 2 days in EGM-2 medium (Lonza, USA) containing 100 ng/ml of VEGF-A and 100 ng/ml of bFGF as growth factors to differentiate into vascular endothelial cells. Particularly, using the control group treated with only Fabrazyme on the vascular endothelial cells prepared in Example 2, the experimental group treated with only SB431542 (Cayman Chemical, USA), and the experimental group treated with Fabrazyme and SB431542, the morphology of the cells was confirmed. Particularly, using the control group treated with only Fabrazyme on the vascular endothelial cells prepared in Example 2, the experimental group treated with Fabrazyme and SB431542, and the experimental group treated with Fabrazyme and losartan (Cayman Chemical, USA), the morphology of the cells was confirmed.

[7] = tested on: vascular endothelial cells differentiated from FB-iPSCs; test: Tube formation on matrigel (vasculogenesis) of vascular endothelial cells differentiated from FB-iPSCs; conditions: SB431542 only or Fabrazyme and SB431542 vs Fabrazyme only; FIGS. 23a-23e
Experimental: On the other hand, 70 μl of matrigel (corning) stock solution was put in a 96-well plate and hardened at 37° C., and then 1×10^4 vascular endothelial cells prepared in Example 2 and EGM2 medium were added thereto to confirm the tube formation. Particularly, using the control group treated with only Fabrazyme on the vascular endothelial cells prepared in Example 2, the experimental group treated with only SB431542, and the experimental group treated with Fabrazyme and SB431542, The tube formation was confirmed in the same manner as described in Experimental Example <4-2>.

[8] = tested on: TSP1 protein in vascular endothelial cells differentiated from normal iPSCs; test: Western blotting after activin A treatment of vascular endothelial cells differentiated from normal iPSCs; conditions: activin A treatment of normal iPSC-derived vascular endothelial cells; FIG. 15
Experimental: as §1
Particularly, the vascular endothelial cells differentiated from normal iPSCs were treated with activin A to activate TGF-β, and Western blotting was performed in the same manner as described in Experimental Example <3-1>. […]

[9] = tested on: SMAD2 protein phosphorylation in vascular endothelial cells differentiated from FB-iPSCs; test: Western blotting of SMAD2 phosphorylation (TGF-β activation) in vascular endothelial cells differentiated from FB-iPSCs; conditions: Fabrazyme treatment; vs normal control group; FIG. 14
Experimental: as §1
as §2, with “anti-SMAD2” for “anti-KDR antibody (1:1000, Cell Signaling Technologies, USA), anti-eNOS”, “anti-phospho-SMAD2” for “anti-TSP1”, “Cell Signaling Technologies,” for “Santacruz,”

LC3 protein in FB-iPSCs = test: Western blotting of LC3 protein in FB-iPSCs; conditions: Fabrazyme and starvation media in various combinations, vs normal cells, FIG. 4
Experimental: as §1

[10] = tested on: LC3, Beclin 1 and ubiquitin proteins in vascular endothelial cells of patients with Fabry disease; test: Western blotting of LC3, Beclin 1 and ubiquitin in vascular endothelial cells of patients with Fabry disease
Experimental: as §1
Particularly, vascular endothelial cells were isolated from the dermal tissue obtained from the patients with Fabry disease of Example 1, to which Fabrazyme was treated. Then, the expression levels of LC3, Beclin 1 and ubiquitin proteins were confirmed by performing Western blotting in the same manner as described in Experimental Example <3-1>. At this time, anti-LC3 antibody (1:1000, Santacruz, USA), anti-Beclin 1 antibody (1:500, Santacruz, USA), and anti-ubiquitin antibody (1:1000, Santacruz, USA) were used as antibodies.

[11] = Fabrazyme and SB431542 vs Fabrazyme only, Western blot, FIG. 22
[12] = given with Fabrazyme vs Fabrazyme only, Fab #1, Fab #2 (FIGS. 24a, 24b)
[13] = vascular endothelial cells of Fabry patients, Fabrazyme treatment, vs normal cells, FIG. 5

**Q.** Which results are given for `CCCCCCCCCCCCC/C=C/[C@@H](O)[C@@H](N)CO[C@@H]1O[C@H](CO)[C@@H](O[C@@H]2O[C@H](CO)[C@H](O[C@H]3O[C@H](CO)[C@H](O)[C@H](O)[C@H]3O)[C@H](O)[C@H]2O)[C@H](O)[C@H]1O` [LysoGb3 protein]?
**A.** morphology of the normal vascular endothelial cells [1]: changed to a widening form; expression location (distribution) of TSP1 protein [2]: distributed throughout the cells; RNA expression level of KDR gene ([3]; 1 day after the treatment): increased; RNA expression level of TSP1 gene ([3]; 1 day after the treatment): increased; RNA expression level of eNOS gene ([3]; 1 day after the treatment): increased; RNA expression level of KDR gene ([3]; after 3 and 5 days): lower than those of the normal control cells; RNA expression level of eNOS gene ([3]; after 3 and 5 days): lower than those of the normal control cells; expression level of KDR protein [4]: decreased; expression level of TSP1 protein [4]: increased; expression level of eNOS protein [4]: decreased; phosphorylation of AKT protein [4]: decreased

**Q.** With `NC(=O)c1ccc(-c2nc(-c3ccc4c(c3)OCO4)c(-c3ccccn3)[nH]2)cc1` [SB431542] as the molecule, how does the “expression level of KDR protein” value [5, 11] read?
**A.** increased

**Q.** What about the “expression level of TSP1 protein” value [5, 11] of the same molecule?
**A.** decreased

**Q.** What about the “expression level of eNOS protein” value [5, 11] of the same molecule?
**A.** increased

**Q.** And the “abnormal morphology of the vascular endothelial cells differentiated from FB-iPSCs” value ([6]; SB431542 only or Fabrazyme and SB431542 vs Fabrazyme only, Fab #1-#4 (FIGS. 21a-21e))?
**A.** restored to normal

**Q.** What about the “therapeutic effect on vasculopathy in patients with Fabry disease” value [6] of the same molecule?
**A.** showed a therapeutic effect

**Q.** What about the “abnormal morphology of the vascular endothelial cells differentiated from FB-iPSCs” value [6, 12] of the same molecule?
**A.** restored to normal

**Q.** What about the “tube formation on matrigel” value [7] of the same molecule?
**A.** formed a tube shape

**Q.** For `CCCCc1nc(Cl)c(CO)n1Cc1ccc(-c2ccccc2-c2nn[nH]n2)cc1` [losartan], which “therapeutic effect on vasculopathy in patients with Fabry disease” value [6] is on record?
**A.** could not be confirmed

**Q.** And the “abnormal morphology of the vascular endothelial cells differentiated from FB-iPSCs” value [6, 12]?
**A.** had no effect

B1: activin A: growth factor used to activate TGF-β (protein, UniProt P08476 311-426, looked up)
Inhibin beta A chain: GLECDGKVNICCKKQFFVSFKDIGWNDWIIAPSGYHANYCEGECPSHIAGTSGSSLSFHSTVINHYRMRGHSPFANLKSCCVPTKLRPMSMLYYDDGQNIIKKDIQNMIVEECGCS
modifications: Inhibin beta A chain
**Q.** With B1 as the molecule, how does the “expression of TSP1 protein” value [8] read?
**A.** increased

B2: Fabrazyme: recombinant alpha-galactosidase enzyme, a therapeutic agent for Fabry disease (protein, UniProt P06280 32-429, looked up)
Alpha-galactosidase A: LDNGLARTPTMGWLHWERFMCNLDCQEEPDSCISEKLFMEMAELMVSEGWKDAGYEYLCIDDCWMAPQRDSEGRLQADPQRFPHGIRQLANYVHSKGLKLGIYADVGNKTCAGFPGSFGYYDIDAQTFADWGVDLLKFDGCYCDSLENLADGYKHMSLALNRTGRSIVYSCEWPLYMWPFQKPNYTEIRQYCNHWRNFADIDDSWKSIKSILDWTSFNQERIVDVAGPGGWNDPDMLVIGNFGLSWNQQVTQMALWAIMAAPLFMSNDLRHISPQAKALLQDKDVIAINQDPLGKQGYQLRQGDNFEVWERPLSGLAWAVAMINRQEIGGPRSYTIAVASLGKGVACNPACFITQLLPVKRKLGFYEWTSRLRSHINPTGTVLLQLENTMQMSLKDLL
**Q.** With B2 as the molecule, how does the “phosphorylation level of SMAD2 protein” value [9] read?
**A.** increased in the vascular endothelial cells derived from patients with Fabry disease compared to the normal control group regardless of the Fabrazyme treatment

**Q.** And the “increased expression level of TSP1 protein by Fabry disease” value ([5]; Fabrazyme treatment, vs normal control group, FIG. 13)?
**A.** not inhibited

**Q.** What about the “expression level of LC3 protein” value (LC3 protein in FB-iPSCs) of the same molecule?
**A.** higher in FB-iPSCs than in normal cells regardless of the Fabrazyme treatment

**Q.** And the “characteristics of the lysosomal storage disease” value ([10]; after the treatment of Fabrazyme, conclusion of Experimental Example 3)?
**A.** not recovered

**Q.** And the “expression level of Beclin 1 protein” value [10, 13]?
**A.** higher in vascular endothelial cells of patients with Fabry disease than in normal cells regardless of the Fabrazyme treatment

**Q.** What about the “expression level of LC3 protein” value [10, 13] of the same molecule?
**A.** higher in vascular endothelial cells of patients with Fabry disease than in normal cells regardless of the Fabrazyme treatment

**Q.** What about the “expression level of ubiquitin protein” value [10, 13] of the same molecule?
**A.** higher in vascular endothelial cells of patients with Fabry disease than in normal cells regardless of the Fabrazyme treatment

— US20220034908A1, “PHARMACEUTICAL COMPOSITION FOR PREVENTING OR TREATING FABRY DISEASE, CONTAINING TSP1 PROTEIN INHIBITOR AS ACTIVE INGREDIENT” (KOREA ADVANCED INSTITUTE OF SCIENCE AND TECHNOLOGY, priority 2018, published 2022)
